Source: patent US4959361A, “Triazolo(4,3-A)(1,4)benzodiazepines and thieno (3,2-F)(1,2,4)triazolo(4,3-A)(1,4)diazepine compounds which have useful activity as platelet activating factor (PAF) antagonists” (Hoffmann-La Roche Inc., priority 1988, dated 1990)
Read-outs that look alike come from different tables or passages of the source.

How the values were obtained:
[1] = tested on: PAF Induced Bronchoconstriction; experiment: PAF induced bronchoconstriction assay, oral testing; assay type: in vivo, guinea pig; settings: Cavia porcellus, po, 2 hr; for ED50: p.o., read-out: Bronchoconstriction ID-50 p.o. 2 hr; for inhibition in vivo at 0.3 mg/kg: at a dose of 0.3 mg/kg p.o.; for inhibition in vivo at 3 mg/kg: Table II (*), 3 mg/kg p.o.
[2] = molecular target: T1, PAF-binding, dog platelets (Canis lupus familiaris, UniProt A0A8I3NSH0); experiment: PAF binding assay (radiolabelled H-PAF, washed dog platelets); settings: 10 minutes at room temperature, read-out: PAF-binding IC-50
T1 construct: dog platelets; from tissue; host or cells: washed platelets from citrated dog blood
T1 sequence (A0A8I3NSH0 1-343): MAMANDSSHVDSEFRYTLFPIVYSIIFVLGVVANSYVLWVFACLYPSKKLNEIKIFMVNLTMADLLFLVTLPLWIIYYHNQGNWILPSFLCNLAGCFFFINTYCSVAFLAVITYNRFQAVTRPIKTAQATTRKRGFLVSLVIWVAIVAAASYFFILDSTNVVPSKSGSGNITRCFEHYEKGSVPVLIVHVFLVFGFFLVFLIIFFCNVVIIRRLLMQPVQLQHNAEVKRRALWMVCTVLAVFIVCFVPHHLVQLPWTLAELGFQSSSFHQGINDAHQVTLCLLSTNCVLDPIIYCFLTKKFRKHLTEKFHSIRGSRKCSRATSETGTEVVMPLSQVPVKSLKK
Experimental: The binding assay was done in […] polyethylene microcentrifuge tubes (Beckman) containing 50 μl of an oil mixture of 2 parts Siliconol AR200 (Serva): 1 part Silicone Fluid (Arthur H. Thoma). Buffer, standards, or analogs (150 μl total volume) were added to the tubes. Radiolabelled H-PAF (50 μl) was then added to the tubes. The reaction was started by the addition of 50 μl of dog platelets (2×10^7 platelets). The tubes were capped, inverted several times to mix, and incubated for 10 minutes at room temperature. The platelets were separated from the incubation mixture by centrifuging 1 minute in a Beckman Microfuge B centrifuge. The tip of the microfuge tube was cut off, and the platelets were washed out of the tip with 200 μl of 50% methanol (Burdick and Jackson). Aquasol (NEN, 10 ml) was added and the radioactivity in the samples was determined using an LS 8100 Beckman liquid scintillation counter linked to a Techtran tape recorder Data was processed through an in-house computer system. Alternatively, radioactivity was determined using a Searle Mark III liquid scintillation counter linked to a Iso-Data microprocessor.
(b) preparation of platelets
Blood was collected from anesthesized or unanesthesized dogs into 50 ml plastic centrifuge tubes containing 3.8% sodium citrate as the anticoagulant (1 volume of citrate/9 volumes of blood). The red cells were removed by centrifugation for 15 minutes at 600 rpm (100-125 g) at room temperature. An aliquot of the supernatant platelet rich plasma (PRP) was saved for cell counting and the remainder was acidified to pH 6.5 with 0.15M citric acid. The platelet pellet was obtained after a 10 minute centrifugation at 2000 rpm (1000 g) at room temperature. Washed platelets were prepared by resuspending the platelet pellet once with pBS containing 1 mM EDTA, centrifuging as noted, and then resuspending the platelets in 0.1% BSA pBS. An aliquot of the washed platelets was counted. Platelets used for binding assays were diluted to 2×10^7 platelets/assay tube (4×10^8 platelets/ml). platelet countinq was done using a Royco Cell-Crit 921.

[3] = tested on: PAF Induced Bronchoconstriction; experiment: PAF induced bronchoconstriction assay, intravenous testing; assay type: in vivo, guinea pig; settings: for ED50: Cavia porcellus, iv, 1 min, i.v., 1 minute pretreatment, PAF 1 μg/kg i.v., read-out: Bronchoconstriction ID-50 i.v.; for % inhibition of bronchoconstriction: Table II (*), at 0. mg/kg i.v. (dose digit cut off)
Experimental: Male animals (Hartlet Strain, 400-500 g were anesthetized with urethane (2 g/kg, i.p.). Each animals' trachea was cannulated and the guinea pigs were respirated using a Harvard small animal rodent respirator (3.0 cc stroke volume, 40 breaths per min.). Tracheal pressure was recorded from a cannula inserted in the trachea and connected to a Statham pressure transducer.
The jugular vein was cannulated for administering compounds. Spontaneous breathing was arrested with succinylcholine (1.2 mg/kg, i.v.) administered 2 minutes prior to intravenous injection of platelet activating factor PAF).
For the intravenous testing, the guinea pig is given a 1-minute pretreatment with propranolol at a dose of 0.1 mg/kg intravenously. The test compound is administered with a 1 minute pretreatment prior to intravenous challenge with PAF. The animal is then challenged with a 1 μg/kg intravenous dose of PAF and the change in tracheal pressure is measured.
The change in tracheal pressure is determined by subtracting the steady state baseline achieved after administration of succinylcholine from the peak broncho. constriction seen after challenge with PAF. The mean is calculated for each test compound and compared to the mean of the control animals to give the percent inhibition of bronchoconstriction. The standard error is calculated as the standard error of the mean.

[4] = Table II, triazolobenzodiazepines
[5] = Table I, triazolothienodiazepines

| SMILES | ED50 ([1]; Table I) [mg/kg] | IC50 [2, 5] [nM] | ED50 ([3]; Table I) [mg/kg] | also measured |
| --- | --- | --- | --- | --- |
| Cc1nnc2n1-c1ccc(C#CCN3C(=O)c4ccccc4C3=O)cc1C(c1ccccc1F)=NC2 |  |  |  | ED50 ([1]; Table II): 0.52 mg/kg; IC50 [2, 4]: 10 nM; ED50 ([3]; Table II): 0.013 mg/kg |
| Cc1nnc2n1-c1sc(C#CCn3c(=O)ccc4ccccc43)cc1C(c1ccccc1Cl)=NC2 | 0.016 | 2 | 0.006 |  |
| Cc1nnc2n1-c1sc(C#CCN3C(=O)COc4ccc(Cl)cc43)cc1C(c1ccccc1Cl)=NC2 | 0.049 | < 1 | 0.004 |  |
| Cc1nnc2n1-c1sc(C#CCN3C(=O)C4(C)CCCc5cccc3c54)cc1C(c1ccccc1Cl)=NC2 (stereo not drawn) | 0.03 | 12 | 0.013 |  |
| Cc1nnc2n1-c1sc(C#CCC34CCCc5cccc(c53)NC4=O)cc1C(c1ccccc1Cl)=NC2 (stereo not drawn) |  | 0.7 | 0.008 | inhibition in vivo at 0.3 mg/kg ([1]; Table I): 24% |
| Cc1nnc2n1-c1sc(C#CCN3C(=O)c4cccc5cccc(c45)C3=O)cc1C(c1ccccc1Cl)=NC2 | 0.025 | 12 | < 0.1 |  |
| Cc1nnc2n1-c1ccc(C#CCN3C(=O)COc4ccccc43)cc1C(c1ccccc1F)=NC2 |  |  |  | inhibition in vivo at 3 mg/kg [1]: 98%; % inhibition of bronchoconstriction [3]: 100% |
| Cc1nnc2n1-c1sc(C#CCN3C(=O)C(=O)c4ccccc43)cc1C(c1ccccc1Cl)=NC2 | 0.06 | 7 | < 0.1 |  |
| Cc1nnc2n1-c1ccc(C#CCCc3ccccc3)cc1C(c1ccccc1F)=NC2 |  |  |  | ED50 ([1]; Table II): > 0.3 mg/kg; IC50 [2, 4]: < 1 nM; ED50 ([3]; Table II): 0.006 mg/kg |
| Cc1nnc2n1-c1ccc(C#CCN3C(=O)c4cccc5cccc3c45)cc1C(c1ccccc1F)=NC2 |  |  |  | inhibition in vivo at 3 mg/kg [1]: 57%; IC50 [2, 4]: 20 nM; % inhibition of bronchoconstriction [3]: 99% |
| Cc1nnc2n1-c1sc(C#CCN3Cc4cccc5cccc(c45)C3=O)cc1C(c1ccccc1Cl)=NC2 | 0.009 | 3.5 | 0.01 |  |
| Cc1nnc2n1-c1sc(C#CCn3c(=O)n(-c4ccccc4)c4ccccc43)cc1C(c1ccccc1Cl)=NC2 | 0.015 | < 1 | 0.008 |  |
| Cc1nnc2n1-c1sc(C#CCOc3ccccc3)cc1C(c1ccccc1Cl)=NC2 |  |  | 0.006 | inhibition in vivo at 0.3 mg/kg ([1]; Table I): 67% |
| Cc1nnc2n1-c1sc(C#CCN3CCc4ccccc4C3=O)cc1C(c1ccccc1Cl)=NC2 | 0.016 |  | 0.008 |  |
| Cc1nnc2n1-c1sc(C#CCN3C(=O)COc4cc(F)ccc43)cc1C(c1ccccc1Cl)=NC2 | 0.016 |  | 0.005 |  |
| Cc1nnc2n1-c1sc(C#CCN3C(=O)COc4ccccc43)cc1C(c1ccccc1Cl)=NC2 | 0.019 | 0.7 | 0.007 |  |
| Cc1nnc2n1-c1sc(C#CCn3c(=O)n(C)c(=O)c4ccccc43)cc1C(c1ccccc1Cl)=NC2 | 0.017 | 0.6 | 0.007 |  |
| C#Cc1cc2c(s1)-n1c(C)nnc1CN=C2c1ccccc1Cl |  | 10 | 0.02 | inhibition in vivo at 0.3 mg/kg ([1]; Table I): 17% |
| Cc1nnc2n1-c1sc(C#CCn3c4c(c5ccccc53)CCCC4)cc1C(c1ccccc1Cl)=NC2 | 0.006 | 7 | 0.005 |  |
| CCc1nnc2n1-c1ccc(C#CCN3C(=O)c4ccccc4C3=O)cc1C(c1ccccc1F)=NC2 [2-[3-[1-Ethyl-6-(2-fluorophenyl)-4H-[1,2,4]triazolo[4,3-a][1, 4]benzodiazepin-8-yl]-2-propynyl]-1H-isoindole-1,3(2H)dione semihydrate] |  |  |  | ED50 ([1]; Table II): 1.5 mg/kg; IC50 [2, 4]: 100 nM; ED50 ([3]; Table II): 0.054 mg/kg |

| SMILES | ED50 ([1]; Table I) [mg/kg] | IC50 [2, 5] [nM] | ED50 ([3]; Table I) [mg/kg] | also measured |
| --- | --- | --- | --- | --- |
| Cc1nnc2n1-c1sc(C#CCn3cnc4c3c(=O)n(C)c(=O)n4C)cc1C(c1ccccc1Cl)=NC2 |  | 20 | 0.043 | inhibition in vivo at 0.3 mg/kg ([1]; Table I): 27% |
| Cc1nnc2n1-c1ccc(C#CCN3C(=O)CSc4ccccc43)cc1C(c1ccccc1F)=NC2 |  |  |  | inhibition in vivo at 3 mg/kg [1]: 99%; % inhibition of bronchoconstriction [3]: 99% |
| O=C1c2ccccc2C(=O)N1CC#Cc1ccc2c(c1)C(c1ccccc1F)=NCc1nnc(C(F)(F)F)n1-2 |  |  |  | ED50 ([1]; Table II): 0.3 mg/kg; ED50 ([3]; Table II): 0.44 mg/kg |
| Cc1nnc2n1-c1sc(C#CCn3c4ccccc4c4ccccc43)cc1C(c1ccccc1Cl)=NC2 | 0.016 | 120 | 0.016 |  |
| Cc1nnc2n1-c1sc(C#CCn3ccc4ccccc4c3=O)cc1C(c1ccccc1Cl)=NC2 | 0.029 | 1 | 0.007 |  |
| Cc1nnc2n1-c1sc(C#CCn3c(=O)c4ccccc4c4ccccc4c3=O)cc1C(c1ccccc1Cl)=NC2 | 0.015 | 51 | 0.01 |  |
| COC1c2ccccc2C(=O)N1CC#Cc1ccc2c(c1)C(c1ccccc1F)=NCc1nnc(C)n1-2 (stereo not drawn) |  |  |  | inhibition in vivo at 3 mg/kg [1]: 100%; IC50 [2, 4]: 100 nM; % inhibition of bronchoconstriction [3]: 99% |
| Cc1nnc2n1-c1ccc(C#CCN3C(=O)c4ccccc4C3=O)cc1C(c1ccccc1Cl)=NC2 |  |  |  | ED50 ([1]; Table II): 1.4 mg/kg; IC50 [2, 4]: 20 nM; ED50 ([3]; Table II): 0.019 mg/kg |
| Cc1nnc2n1-c1sc(C#CCn3ncc4ccccc43)cc1C(c1ccccc1Cl)=NC2 | 0.015 | 1 | 0.002 |  |
| Cc1nnc2n1-c1sc(C#CCN3C(=O)c4cccc5cccc3c45)cc1C(c1ccccc1Cl)=NC2 | 0.042 | 5 | < 0.1 |  |
| Cc1nnc2n1-c1sc(C#CCn3c(=O)c4ccccc4c(=O)c4ccccc43)cc1C(c1ccccc1Cl)=NC2 | 0.026 |  | 0.008 |  |
| Cc1nnc2n1-c1sc(C#Cc3ccccn3)cc1C(c1ccccc1Cl)=NC2 |  | 250 | 0.056 | inhibition in vivo at 0.3 mg/kg ([1]; Table I): 5% |
| Cc1nnc2n1-c1sc(C#CCn3c(=O)c4c(ncn4C)n(C)c3=O)cc1C(c1ccccc1Cl)=NC2 |  | 7 | 0.018 | inhibition in vivo at 0.3 mg/kg ([1]; Table I): 38% |
| Cc1nnc2n1-c1sc(C#CCN3C(=O)CCc4cc(Cl)cc(Cl)c43)cc1C(c1ccccc1Cl)=NC2 | 0.021 | < 1 | 0.006 |  |
| Cc1nnc2n1-c1ccc(C#CCN3C(=O)C(=O)c4ccccc43)cc1C(c1ccccc1Cl)=NC2 |  |  |  | IC50 [2, 4]: 350 nM; % inhibition of bronchoconstriction [3]: 100% |
| Cc1nnc2n1-c1sc(C#CCn3c(=O)n(C)c4ccccc43)cc1C(c1ccccc1Cl)=NC2 | 0.043 | 0.3 | 0.004 |  |
| Cc1nnc2n1-c1sc(C#Cc3ccccc3)cc1C(c1ccccc1Cl)=NC2 |  | 100 | > 0.1 |  |
| Cc1nnc2n1-c1sc(C#CCn3c(=O)c4ccccc4c4ccccc43)cc1C(c1ccccc1Cl)=NC2 | 0.012 | 13 | 0.016 |  |
| Cc1nnc2n1-c1ccc(C#CCN3C(=O)CCc4ccccc43)cc1C(c1ccccc1F)=NC2 |  |  |  | ED50 ([1]; Table II): 0.44 mg/kg; IC50 [2, 4]: 20 nM; ED50 ([3]; Table II): 0.015 mg/kg |
| Cc1nnc2n1-c1sc(C#CCN3C(=O)CCc4ccccc43)cc1C(c1ccccc1Cl)=NC2 | 0.015 | 0.2 | 0.004 |  |
